Test results: patent US8232253B2, “Treatment of lung cancer” (Ramot at Tel-Aviv University Ltd., priority 2006, dated 2012)

Tests used:
A549 cells [1] = assay: BrdU incorporation into DNA; format: cell-based; details: Homo sapiens, 75 μM FTS, 48 h, read-out: inhibition of incorporation of BrdU into DNA relative to vehicle-treated control
Method: A549 cells were plated on glass cover slips (1.2×10^5 cells/well in 6-well plates) and incubated for 24 h in medium containing 5% FCS. The cells were then incubated for 24 h with or without 75 μM FTS and then for 24 h with 5-bromo-2-deoxyuridine (BrdU) (Zymed BrdU labeling kit, 1:100 dilution). Cells were fixed with 4% paraformaldehyde, permeabilized with 0.2% Triton X-100 (BDH, Poole, UK), washed with PBS, blocked with TBS Tween (TBST; 50 mM Tris, pH 7.4, 100 mM NaCl, 0.1% Tween 20) containing 1% bovine serum albumin (BSA), treated sequentially with 2 N HCl and 0.1 M sodium borate pH 8.5, and then blocked with goat γ-globulin and washed with TBST-BSA (described above). The cells were then labeled successively with mouse anti-BrdU antibody (Ab) (Zymed kit; 1:50 dilution), biotinylated rabbit anti mouse IgG (5 μg/ml), and Cy3-streptavidin (1.5 μg/ml). Cells with BrdU-stained nuclei were counted under a fluorescence microscope.
(§1) To investigate the effect of FTS on lung cancer cell proliferation, we first incubated A549 cells that harbor the activated K-ras gene mutated at codon 12. A549 cells are commonly used as a model for drug screening. […] The number of cells in the FTS-treated cultures was determined by direct counting of A549 cells grown for 6 days in the presence of FTS and was expressed as a percentage of the number recorded in the controls. […]

A549 cells [2] = assay: Cell growth by direct cell counting; format: cell-based; details: Homo sapiens, A549, 144 h, cells grown 6 days with FTS, read-out: FTS concentration giving a decrease of 50% in A549 cell growth
Method: FTS was provided by Concordia Pharmaceuticals, Inc. (Ft. Lauderdale, Fla.). All cell lines were obtained from American Type Culture Collection (“ATCC”) (Manassas, Va.). A549 cells, non-small-cell lung carcinoma (CCL, ATCC) cells, were cultured in Kaighn's modification of Ham's F-12 medium containing 1.5 g/l sodium bicarbonate, 10% fetal calf serum (FCS), 100 U/ml penicillin, and 100 μg/ml streptomycin. HTB54 lung carcinoma cells were cultured in McCoy's 5A medium with 10% FCS, 100 U/ml penicillin, and 10 μg/ml streptomycin. […] Cells were treated with the indicated concentrations of FTS (Concordia Pharmaceuticals, Sunrise Fla.) or with 0.1% Me2SO4 (DMSO) (vehicle) 24 h after plating and were counted 5 days later. Dead cells were counted after addition of Hoechst 33258 dye (Sigma-Aldrich, St. Louis, Mo.); 1 μg/ml) to vehicle-treated control cultures or to cultures treated for 24 or 48 h with 75 μM FTS. Fluorescence images were collected 5 min after the dye was added.
as §1, with “12.” for “12. A549 cells are commonly used as a model for drug screening.”

[3] = test system: human NSCLC cell lines H1734, H2030, H1975, H3255; assay: Alamar blue viable cell assay in NSCLC cell lines; format: cell-based; details: increasing FTS concentrations, 96 hours; H1734, H2030 (KRAS mutations), H1975, H3255 (EGFR mutations)
Method: To determine whether FTS sensitized other human NSCLC cell lines to cell death, experiments were conducted on cell lines H1734 and H2030 (KRAS mutations) and H1975 and H3255 (EGFR mutations). The four cell lines were grown in increasing concentrations of FTS (dissolved in DMSO). After 96 hours, viable cells were quantified using an Alamar blue assay. Results are the mean±standard error of three independent experiments, in which there were 3 replicates of each condition, as shown in FIG. 15.

A549 cells [4] = assay: Immunofluorescence of cytoskeleton (F-actin, vinculin) and cell morphology; format: cell-based, human; details: 75 μM FTS, 48 h
Method: A549 cells were plated on glass cover slips (2×10^4 cells/well in 6-well plates), incubated for 24 h in medium containing 5% FCS, and then incubated for 48 h with or without 75 μM FTS. The cells were fixed and permeabilized at room temperature by successive incubations with 3.7% formaldehyde (20 min) and 0.2% Triton X-100 in PBS (5 min), then washed for 5 min with UB buffer (150 mM NaCl, 10 mM Tris pH 7.6, and 0.2% sodium azide in PBS) and blocked with 2% BSA in UB (UBB, 5 min). The fixed cells were incubated successively with naïve goat IgG for 30 min (200 μg/ml, Jackson ImmunoResearch Laboratories, West Grove, Pa.), anti-vinculin Ab for 1 h (1:400, Sigma-Aldrich), goat anti-mouse Cy2-conjugated Ab for 1 h (1:200, Jackson), and rhodamine-labeled phalloidin for 1 h (1:1000, Sigma-Aldrich). Between each of the above steps the cells were washed for 30 min with UBB. Lastly, the cover slips were washed with UB, dried, and mounted onto the slides with Muviol. F-actin (red) and vinculin (green) were visualized with a Zeiss LSM 510 confocal microscope fitted with non-leaking green and red fluorescence filters. Co-localization was assessed using the co-localization function of the LSM 510 software. […]

- IC50 (A549 cells [2]): 40 µM
Structure (SMILES): CC(C)=CCC/C(C)=C/CC/C(C)=C/CSc1ccccc1C(=O)O [FTS, S-farnesylthiosalicylic acid]
- inhibition at 75 µM (A549 cells [1]): 56.7 ± 17.4%
- sensitization of NSCLC cell lines to cell death [3]: sensitized
- cells that had undergone changes in cell morphology (A549 cells [4]): more than 80%
